The values below come from patent publication US20160310619A1, “SCREENING METHODS FOR ACETYLCHOLINE RELATED BIOACTIVE MATERIALS USING INHERITED COLOR PREFERENCE OF FISH” (GENOMIC DESIGN BIOENGINEERING COMPANY, priority 2014, published 2016).

The test system of assay [1] is zebrafish. The experiment in a line: Screening for acetylcholine neurotransmission-related materials by innate color preference (blue/yellow color maze). The format is in vivo, zebrafish (Danio rerio). The following applies: acetylcholinesterase inhibitors vs egg water; five days old fish; FIG. 9(A)-(C).
Excerpt: For this experiment, a straight line-shaped screening device (color maze) was used as a screening device, and blue and yellow that most differ in color preference were used. Further, five days old young fish born from the same male and female were used in the channels of the device and divided into a comparison group and an experimental group in this experiment. The number of entities used in the comparison group and the experimental group was 10 per channel. The final volume of egg water used in each channel was fitted into 4 mL. Considering the direction for illumination and time of transmission of drug to nerves, video-recording was performed for 30 minutes, and then, sleeves were changed. Then, video-recording was resumed for 30 minutes. The number of entities in each of the sections with different colors was counted every two minutes and was processed statistically. As statistics, the significance of the comparison group and the experimental group was identified through the T-test (SPSS, USA).
For acetylcholine (Sigma), tacrine (Sigma), galantamine (Sigma), and caffeine (Sigma) as reagents administered to the experimental group, concentrates including acetylcholine of 1000 mM, tacrine of 20 mM, and galantamine of 10 mM were prepared using third distilled water. 10 entities, five days after fertilization, were put in the channel of each color maze, and egg water of 4 mL was used. […]
The subject of assay [2] is zebrafish. The experiment in a line: Color preference of zebrafish in blue/yellow color maze after alcohol. The format is in vivo, zebrafish (Danio rerio). The following applies: zebrafish 25 days after birth; alcohol 0.5%, 1%, 2% in egg water vs 0% comparison group; FIG. 7. An excerpt:
A method for detecting bioactive materials using the innate color preference instinct of fish based on the color recognition and color preference results according to the visual recognition of zebrafish was developed. In order to identify whether a method for screening a bioactive material according to the present invention may effectively detect candidate materials, alcohol was used as an example of the bioactive material to identify whether the color preference of zebrafish is changed between before applied to zebrafish and after applied to the zebrafish. This utilizes the common sense that humans' recognition ability is changed depending on the blood alcohol concentration.
A specific experimental method was as follows. A straight line-shaped screening device (color maze) with a combination of blue and yellow was prepared, and 40 zebrafish, 25 days after birth, were used. Every 10 of the fish were put in each straight-line groove, egg water of 5 ml was used, and then, video-recording was performed for 30 minutes using a video recorder. As predicted, many of the zebrafish moved to blue that is a preferred color of zebrafish. […] The number of zebrafish in each color section was counted through the video recorded over five times in total.

With `Nc1c2c(nc3ccccc13)CCCC2` [tacrine, 1,2,3,4-tetrahydro-9-acridine amine], the “change in color preference (number of young zebrafish in blue and yellow sections)” value in the assay on zebrafish [1] is “moved to yellow that is their avoided color”.

Regarding `CCO` [alcohol], the “ability of distinguishing colors (number of zebrafish in each color section)” value in the assay with zebrafish [2] was “as the alcohol concentration increases, the number of zebrafish that can distinguish colors decreases”.
